Source: article PMC7909074 (Journal of medicinal chemistry, 2021)
Like-named read-outs stand apart in the source and are kept apart here. One block for each compound: values may come before it.

Assays:
GRK5 [1] = target: T1, GRK5 (Homo sapiens, UniProt P34947); assay: Intact protein MS, adduct formation with GRK5; conditions: for Adduct by MS: incubation time needed to observe adduct formation with GRK5: intact mass MS; for covalent adduct formation with GRK5 (in words): intact MS
[2] = Thermodynamic solubility, miniaturized shake-flask; type: physicochemical
bovine GRK2 = target: T2, bovine GRK2 (Bos taurus, UniProt P21146); assay: Radiometric GRK2 inhibition assay; type: biochemical
T2 sequence (P21146 1-689): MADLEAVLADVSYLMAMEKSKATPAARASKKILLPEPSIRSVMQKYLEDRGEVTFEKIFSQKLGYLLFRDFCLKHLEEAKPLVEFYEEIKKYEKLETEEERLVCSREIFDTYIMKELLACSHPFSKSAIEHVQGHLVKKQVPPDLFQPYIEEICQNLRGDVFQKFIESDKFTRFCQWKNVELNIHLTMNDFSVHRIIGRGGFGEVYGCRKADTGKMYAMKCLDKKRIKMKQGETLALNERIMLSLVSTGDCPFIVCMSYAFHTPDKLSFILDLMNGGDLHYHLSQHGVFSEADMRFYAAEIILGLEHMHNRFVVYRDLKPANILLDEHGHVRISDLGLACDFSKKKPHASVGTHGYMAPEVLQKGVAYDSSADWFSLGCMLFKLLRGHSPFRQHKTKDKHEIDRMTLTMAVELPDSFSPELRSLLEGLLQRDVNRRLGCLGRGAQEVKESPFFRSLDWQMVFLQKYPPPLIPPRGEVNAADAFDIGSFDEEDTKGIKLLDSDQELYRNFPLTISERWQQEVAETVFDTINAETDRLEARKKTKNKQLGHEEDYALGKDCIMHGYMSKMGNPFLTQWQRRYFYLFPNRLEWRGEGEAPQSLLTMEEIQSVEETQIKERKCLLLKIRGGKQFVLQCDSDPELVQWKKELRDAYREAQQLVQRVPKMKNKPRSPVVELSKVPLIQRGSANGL

[3] = Microsomal stability, HLM; type: in vitro ADME; conditions: human, human liver microsomes
GRK5 [4] = target: T1, GRK5; assay: Kinome-wide selectivity panel, GRK5; conditions: read-out: inhibition of GRK5
GRK5 [5] = target: T1, GRK5; assay: Covalent inhibition kinetic analysis
[6] = system: rodent model of hypertrophy; conditions: cited from earlier work
[7] = cited from earlier work
PKA = PKA (Homo sapiens, UniProt P17612); assay: PKA inhibition assay, ADP-Glo

T1 sequence (P34947 whole entry): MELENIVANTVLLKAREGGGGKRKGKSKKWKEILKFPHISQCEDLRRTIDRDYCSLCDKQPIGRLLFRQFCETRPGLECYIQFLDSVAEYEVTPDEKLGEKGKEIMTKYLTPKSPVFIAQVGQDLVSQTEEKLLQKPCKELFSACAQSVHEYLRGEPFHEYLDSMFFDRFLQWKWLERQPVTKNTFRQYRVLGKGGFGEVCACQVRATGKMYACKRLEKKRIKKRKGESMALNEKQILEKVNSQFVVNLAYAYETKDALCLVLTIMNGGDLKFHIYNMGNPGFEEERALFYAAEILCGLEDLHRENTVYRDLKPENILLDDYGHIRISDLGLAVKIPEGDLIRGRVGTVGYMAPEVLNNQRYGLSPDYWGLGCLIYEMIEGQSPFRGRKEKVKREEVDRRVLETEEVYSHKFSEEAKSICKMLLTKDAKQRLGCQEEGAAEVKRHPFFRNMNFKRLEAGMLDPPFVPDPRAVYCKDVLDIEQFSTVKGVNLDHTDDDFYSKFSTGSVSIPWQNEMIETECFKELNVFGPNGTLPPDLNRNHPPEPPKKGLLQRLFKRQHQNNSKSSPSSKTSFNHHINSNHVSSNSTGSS

Adduct by MS: incubation time needed to observe adduct formation with GRK5 (GRK5 [1]; Table 1): >3 h
covalent adduct formation with GRK5 (in words) (GRK5 [1]; 30 min incubation): unreactive
Structure (SMILES): CC#CC(=O)Nc1c(C)[nH]c(/C=C2\C(=O)Nc3ccc(C(=O)N[C@H](C)c4ccccc4)cc32)c1C (mixture of isomers) [Compound 9a, (R,Z)-3-((4-(but-2-ynamido)-3,5-dimethyl-1H-pyrrol-2-yl)methylene)-2-oxo-N-(1-phenylethyl)indoline-5-carboxamide]

solubility improvement over 9e [2]: 3.5 fold
Structure (SMILES): Cc1[nH]c(/C=C2\C(=O)Nc3ccc(C(=O)N[C@H](C)c4ccccn4)cc32)c(C)c1NC(=O)CCl (mixture of isomers) [Compound 9l, (R,Z)-3-((4-(2-chloroacetamido)-3,5-dimethyl-1H-pyrrol-2-yl)methylene)-2-oxo-N-(1-(pyridin-2-yl)ethyl)indoline-5-carboxamide]

IC50 (bovine GRK2): 190 ± 70 µM
Structure (SMILES): Cc1[nH]c(/C=C2\C(=O)Nc3ccc(C(=O)NC(C)(C)c4ccccc4)cc32)c(C)c1NC(=O)CCl [Compound 9r, (Z)-3-((4-(2-chloroacetamido)-3,5-dimethyl-1H-pyrrol-2-yl)methylene)-2-oxo-N-(2-phenylpropan-2-yl)indoline-5-carboxamide]

Adduct by MS: incubation time needed to observe adduct formation with GRK5 (GRK5 [1]; Table 1): >0.5 h
Structure (SMILES): C=CCCNC(=O)c1c(C)[nH]c(/C=C2\C(=O)Nc3ccc(C(=O)N[C@H](C)c4ccccc4)cc32)c1C (mixture of isomers) [Compound 5f, (R,Z)-3-((4-(but-3-en-1-ylcarbamoyl)-3,5-dimethyl-1H-pyrrol-2-yl)methylene)-2-oxo-N-(1-phenylethyl)indoline-5-carboxamide]

half-life [3]: 18.9 min
Structure (SMILES): Cc1[nH]c(/C=C2\C(=O)Nc3ccc(C(=O)N[C@H](C)c4ccc(F)cc4)cc32)c(C)c1NC(=O)CCl (stereo in doubt) [Compound 9j, (R,Z)-3-((4-(2-chloroacetamido)-3,5-dimethyl-1H-pyrrol-2-yl)methylene)-N-(1-(4-fluorophenyl)ethyl)-2-oxoindoline-5carboxamide]

inhibition at 0.01 µM (GRK5 [4]): 50%
kinact (GRK5 [5]): > 0.0167 s⁻¹
Adduct by MS: percent adduct (GRK5 [1]; Table 1, 30 min incubation): 70% 30 min
covalent adduct formation with GRK5 (in words) (GRK5 [1]; 30 min incubation): rapidly reacted with GRK5
Structure (SMILES): Cc1[nH]c(/C=C2\C(=O)Nc3ccc(C(=O)N[C@H](C)c4ccccc4)cc32)c(C)c1NC(=O)CBr (mixture of isomers) [Compound 9g, (R,Z)-3-((4-(2-bromoacetamido)-3,5-dimethyl-1H-pyrrol-2-yl)methylene)-2-oxo-N-(1-phenylethyl)indoline-5-carboxamide]

Structure (SMILES): NCCCNCCCCNCCCNc1cc2nc(-c3ccccc3Cl)[nH]c(=O)c2cc1F [KR-39038]
effect in a rodent model of hypertrophy (in words) [6]: mild positive effects
bioavailability (in words) [7]: low bioavailability
half-life [7]: < 60 min

IC50 (PKA): > 250 µM
IC50 (bovine GRK2): 23 ± 20 µM
Structure (SMILES): Cc1[nH]c(/C=C2\C(=O)Nc3ccc(C(=O)N[C@@H](c4ccccc4)C(C)C)cc32)c(C)c1NC(=O)CCl (stereo in doubt) [Compound 9s, (R,Z)-3-((4-(2-chloroacetamido)-3,5-dimethyl-1H-pyrrol-2-yl)methylene)-N-(2-methyl-1-phenylpropyl)-2-oxoindoline-5-carboxamide]
